Measurements as given in patent US20020103141A1, “Antiangiogenic combination therapy for the treatment of cancer” (priority 1998, published 2002).
Where a name gives a salt, the structure may show the parent alone. Read-outs that look alike come from different tables or passages of the source.

Key:
COX-2 = target: T1, COX-2 (UniProt P35354); assay: Fast assay for COX-2 activity (PGE2 ELISA); settings: read-out: COX-2* IC50, recombinant COX-2, PGE2 ELISA, 10 min pre-incubation at 25° C.
T1 sequence (P35354 1-604): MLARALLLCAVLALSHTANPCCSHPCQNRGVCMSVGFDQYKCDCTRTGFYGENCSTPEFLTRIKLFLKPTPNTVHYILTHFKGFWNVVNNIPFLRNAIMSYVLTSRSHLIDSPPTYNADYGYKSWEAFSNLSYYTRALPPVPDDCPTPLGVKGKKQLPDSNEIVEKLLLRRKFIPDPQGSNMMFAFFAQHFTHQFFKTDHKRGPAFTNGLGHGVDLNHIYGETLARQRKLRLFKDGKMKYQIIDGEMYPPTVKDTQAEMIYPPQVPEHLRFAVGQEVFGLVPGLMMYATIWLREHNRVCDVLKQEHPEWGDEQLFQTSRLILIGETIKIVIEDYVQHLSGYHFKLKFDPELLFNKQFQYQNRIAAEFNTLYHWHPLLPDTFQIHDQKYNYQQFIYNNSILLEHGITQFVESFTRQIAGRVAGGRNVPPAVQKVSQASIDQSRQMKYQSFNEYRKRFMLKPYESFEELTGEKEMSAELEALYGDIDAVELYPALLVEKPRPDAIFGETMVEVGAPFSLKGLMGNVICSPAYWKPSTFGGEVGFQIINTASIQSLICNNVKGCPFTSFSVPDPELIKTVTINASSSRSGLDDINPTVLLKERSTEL

COX-1 = COX-1 (UniProt P23219); assay: Fast assay for COX-1 activity (PGE2 ELISA); settings: read-out: COX-1* IC50, recombinant COX-1, PGE2 ELISA, 10 min pre-incubation at 25° C.
[1] = cited from earlier work
Lewis Lung tumor cells = assay: Lewis Lung Model: tumor volume and lung metastasis; assay type: in vivo, Mice
Text: The data is expressed as the mean +/−SEM. […] Analysis of lung metastasis is done in all the animals by counting metastasis in a stereomicroscope and by histochemical analysis of consecutive lung sections.

[2] = doses of 15 mg/kg/day, biliary cirrhosis trials; cited from earlier work
[3] = cited from earlier work; remark: listed apart in the source
[4] = cited from earlier work; remark: listed apart in the source

melting point | IC50 (COX-1) | SMILES | also measured
165.6 to 166.8 °C | 57 µM | CC(C)(C)c1ccc2c(c1)OC(C(F)(F)F)C(C(=O)O)=C2 (stereo not shown) [Example 15, 7-(1,1-Dimethylethyl)-2-trifluoromethyl-2H-1-benzopyran-3-carboxylic acid] | IC50 (COX-2): 3.6 µM
173 to 176 °C | > 100 µM | O=C(O)C1=Cc2cc(Cl)ccc2N[C@@H]1C(F)(F)F [Example 13, (S)-6-chloro-1,2-dihydro-2-(trifluoromethyl)-3-quinolinecarboxylic acid] | IC50 (COX-2): 0.2 µM
240.5 to 241.7 °C | 365 µM | Cc1cc2c(cc1Cl)C=C(C(=O)O)C(C(F)(F)F)S2 (stereo not shown) [Example 23, 6-Chloro-7-methyl-2-(trifluoromethyl)-2H-1-benzothiopyran-3-carboxylic acid] | 
196.1 to 198.3 °C | 94.6 µM | O=C(O)C1=Cc2cc(Cl)c(Cl)cc2OC1C(F)(F)F (stereo not shown) [Example 16, 6,7-Dichloro-2-trifluoromethyl-2H-1-benzopyran-3-carboxylic acid] | 
 |  | CC[C@@]1(O)C(=O)OCc2c1cc1n(c2=O)Cc2cc3c(CN(C)C)c(O)ccc3nc2-1 [Topotecan hydrochloride, (S)-10-((dimethylamino)methyl)-4-ethyl-4,9-dihydroxy-1H-pyrano(3′,4′:6,7)indolizino(1,2-B)quinoline-3,14-(4H,12H)-dione monohydrochloride] | LD10 ([1]; mice, single IV infusion): 75 mg/m^2
223.4 to 225.7 °C | 9.7 µM | O=C(O)C1=Cc2cc(Cl)cc(Cl)c2NC1C(F)(F)F (stereo not shown) [Example 14, 6,8-Dichloro-1,2-dihydro-2-(trifluoromethyl)-3-quinolinecarboxylic acid] | IC50 (COX-2): 0.2 µM
 |  | Cc1ccc(-c2cc(C(F)(F)F)nn2-c2ccc(S(N)(=O)=O)cc2)cc1 [Celecoxib, 4-[5-(4-methylphenyl)-3-(trifluoromethyl)-1H-pyrazol-1-yl]-benzenesulfonamide] | size of the metastatic lesions in the lung (Lewis Lung tumor cells; histopathological analysis): dose-dependently reduces the size of the metastasic lesions in the lung; effect on lung metastasis (Lewis Lung tumor cells; lower dose of 160 ppm in the diet): does not affect lung metastasis
236.2 to 239.3 °C |  | O=C(O)C1=Cc2c(cc(Cl)c(Cl)c2Cl)OC1C(F)(F)F (stereo not shown) [Example 19, 5,6,7-Trichloro-2-(trifluoromethyl)-2H-1-benzopyran-3-carboxylic acid] | 
 | 18.8 µM | O=C(O)C1=Cc2cc(OC(F)(F)F)ccc2OC1C(F)(F)F (stereo not shown) [Example 5, 6-Trifluoromethoxy-2-trifluoromethyl-2H-1-benzopyran-3-carboxylic acid] | 
222 to 225.3 °C |  | O=C(O)C1=Cc2cc(Cl)c(Cl)c(Cl)c2OC1C(F)(F)F (stereo not shown) [Example 20, 6,7,8-Trichloro-2-(trifluoromethyl)-2H-1-benzopyran-3-carboxylic acid] | 
 |  | C[C@H](CCC(=O)O)[C@H]1CC[C@H]2[C@@H]3[C@@H](O)C[C@@H]4C[C@H](O)CC[C@]4(C)[C@H]3CC[C@]12C [URSO] | tolerability and toxicity [2]: extremely well tolerated and without toxicity
187.8 to 188.8 °C | > 500 µM | O=C(O)C1=Cc2cc(Cl)ccc2NC1C(F)(F)F (stereo not shown) [Example 12, 6-Chloro-1,2-dihydro-2-(trifluoromethyl)-3-quinolinecarboxylic acid] | IC50 (COX-2): 0.6 µM
 |  | O=C1c2c(c3c4ccc(O)cc4n([C@@H]4O[C@H](CO)[C@@H](O)[C@H](O)[C@H]4O)c3c3[nH]c4cc(O)ccc4c23)C(=O)N1NC(CO)CO [J 107088, 5H-Indolo[2,3-a]pyrrolo[3,4-c]carbazole-5,7(6H)-dione, 12-β-D-glucopyranosyl-12,13-dihydro-2,10-dihydroxy-6-[[2-hydroxy-1-(hydroxymethyl)ethyl]amino]-] | Maximum tolerated dose ([3]; in vivo): 7.5 mg/m2
 | 0.2 µM | O=C(O)C1=Cc2cc(Cl)cc(Cl)c2SC1C(F)(F)F (stereo not shown) [Example 24, 6,8-Dichloro-2-trifluoromethyl-2H-1-benzothiopyran-3-carboxylic acid] | 
 |  | CC[C@@]1(O)C(=O)OCc2c1cc1n(c2=O)Cc2cc3c(CN(C)C)c(O)ccc3nc2-1 [Topotecan, 1H-Pyrano[3′,4′:6,7]indolizino[1,2-b]quinoline-3,14(4,H,12H)-dione, 10-[(dimethylamino)methyl]-4-ethyl-4,9-dihydroxy-, (S)-] | Maximally tolerated dose ([3]; × 5 d every 3 to 4 wk): dose: 1.5 mg/m^2
134.7 to 136.2 °C |  | O=C(O)C1=Cc2cc(C(F)F)ccc2OC1C(F)(F)F (stereo not shown) [Example 8, 6-(Difluoromethyl)-2-(trifluoromethyl)-2H-1-benzopyran-3-carboxylic acid] | 
 |  | CC[C@@]1(O)C(=O)OCc2c1cc1n(c2=O)Cc2cc3c([N+](=O)[O-])cccc3nc2-1 [rubitecan, 1H-Pyrano[3′,4′:6,7]indolizino[1,2-b]quinoline-3,14(4H,12H)-dione, -4-ethyl-4-hydroxy-10-nitro-, (S)-] | grade 4 anemia ([3]; % of patients): 29% of; grade 4 thrombocytopenia ([3]; % of patients): penia in 18%.; chemical cystitis, Grade 2 or higher ([3]; occurred at each dose level): (25%),; diarrhea, Grade 2 or higher ([3]; occurred at each dose level): (32%),; nausea and vomiting, Grade 2 or higher ([3]; occurred at each dose level): (54%),; neutropenic sepsis, Grade 2 or higher ([3]; occurred at each dose level): sepsis (21%),; weight loss, Grade 2 or higher ([3]; occurred at each dose level): loss (18%).; Maximum tolerated dose ([3]; over five consecutive days repeated every week): 1.5 mg/ mg/m2/day
 |  | CC[C@@]1(O)C(=O)OCc2c1cc1n(c2=O)Cc2cc3c(N)cccc3nc2-1 [9-aminocamptothecin, 1H-Pyrano[3′,4′:6,7]indolizino[1,2-b]quinoline-3,14(4H,12H)-dione, 10-amino-4-ethyl-4-hydroxy-, (S)-] | Maximum tolerated dose ([3]; in vivo): dose = 45 mug/square metre/hr
211.5 to 213.5 °C |  | O=C(O)C1=Cc2c(ccc(Cl)c2Cl)OC1C(F)(F)F (stereo not shown) [Example 17, 5,6-Dichloro-2-(trifluoromethyl)-2H-1-benzopyran-3-carboxylic acid] | 
126.7 to 128.9 °C |  | O=C(O)C1=Cc2cc(Cl)ccc2O[C@@H]1C(F)(F)F [Example 2, (S)-6-Chloro-2-trifluoromethyl-2H-1-benzopyran-3-carboxylic acid] | 
185 to 186 °C | > 100 µM | O=C(O)C1=Cc2cc(Br)ccc2NC1C(F)(F)F (stereo not shown) [Example 22, 6-Bromo-1,2-dihydro-2-(trifluoromethyl)-3-quinolinecarboxylic acid] | IC50 (COX-2): 0.4 µM
 |  | CCc1c2c(nc3ccc(OC(=O)N4CCC(N5CCCCC5)CC4)cc13)-c1cc3c(c(=O)n1C2)COC(=O)[C@]3(O)CC.Cl [Irinotecan hydrochloride, (4S)-4,11-diethyl-4-hydroxy-9-((4-piperidinopiperidino)carbonyloxy)-1H-pyrano(3′,4′:6,7)indolizino(1,2-b)quinoline-3,14(4H,12H)dione hydrochloride] | Lethality in mice [1]: mice: 111 mg/kg; Lethality in rats [4]: in rats: 73 mg/kg
143.5 to 145.2 °C |  | O=C(O)C1=Cc2cc(C(F)(F)F)ccc2OC1C(F)(F)F (stereo not shown) [Example 18, 2,6-Bis(trifluoromethyl)-2H-1-benzopyran-3-carboxylic acid] | 
229.9 to 230.9 °C | 1 µM | Cc1c(Cl)cc2c(c1Cl)OC(C(F)(F)F)C(C(=O)O)=C2 (stereo not shown) [Example 9, 6,8-Dichloro-7-methyl-2-(trifluoromethyl)-2H-1-benzopyran-3-carboxylic acid] | IC50 (COX-2): 0.9 µM
 | 43 µM | O=C(O)C1=Cc2cc(Cl)ccc2OC1C(F)(F)F (stereo not shown) [Example 1, 6-Chloro-2-trifluoromethyl-2H-1-benzopyran-3-carboxylic acid] | IC50 (COX-2): 0.7 µM
188 to 192 °C | > 100 µM | O=C(O)C1=Cc2cc(I)ccc2NC1C(F)(F)F (stereo not shown) [Example 21, 6-Iodo-1,2-dihydro-2-(trifluoromethyl)-3-quinolinecarboxylic acid] | IC50 (COX-2): 0.8 µM
166.3 to 167.9 °C |  | CSc1ccc2c(c1)C=C(C(=O)O)C(C(F)(F)F)O2 (stereo not shown) [Example 2, 6-(Methylthio)-2-(trifluoromethyl)-2H-1-benzopyran-3-carboxylic acid] | 
211.3 to 215.7 °C | > 500 µM | O=Cc1ccc2c(c1)C=C(C(=O)O)C(C(F)(F)F)O2 (stereo not shown) [Example 7, 6-Formyl-2-(trifluoromethyl)-2H-1-benzopyran-3-carboxylic acid] | 
